Data on 19 compounds can be found in PMC3925373 (Bioorganic & medicinal chemistry, 2013).

For assay [1], the target named is Bacillus anthracis lethal factor (Bacillus anthracis, UniProt P15917). Briefly: biochemical. Format: biochemical.
The target of assay [2] is BoNT/A LC (Clostridium botulinum, UniProt P0DPI0). The assay is described as follows: biochemical. In kind it is biochemical, Clostridium bolulinum.
The target in assay [3] is BaLF (Bacillus anthracis, UniProt P15917). Format: biochemical.
Sequence of BaLF (P15917 34-809 limits assumed): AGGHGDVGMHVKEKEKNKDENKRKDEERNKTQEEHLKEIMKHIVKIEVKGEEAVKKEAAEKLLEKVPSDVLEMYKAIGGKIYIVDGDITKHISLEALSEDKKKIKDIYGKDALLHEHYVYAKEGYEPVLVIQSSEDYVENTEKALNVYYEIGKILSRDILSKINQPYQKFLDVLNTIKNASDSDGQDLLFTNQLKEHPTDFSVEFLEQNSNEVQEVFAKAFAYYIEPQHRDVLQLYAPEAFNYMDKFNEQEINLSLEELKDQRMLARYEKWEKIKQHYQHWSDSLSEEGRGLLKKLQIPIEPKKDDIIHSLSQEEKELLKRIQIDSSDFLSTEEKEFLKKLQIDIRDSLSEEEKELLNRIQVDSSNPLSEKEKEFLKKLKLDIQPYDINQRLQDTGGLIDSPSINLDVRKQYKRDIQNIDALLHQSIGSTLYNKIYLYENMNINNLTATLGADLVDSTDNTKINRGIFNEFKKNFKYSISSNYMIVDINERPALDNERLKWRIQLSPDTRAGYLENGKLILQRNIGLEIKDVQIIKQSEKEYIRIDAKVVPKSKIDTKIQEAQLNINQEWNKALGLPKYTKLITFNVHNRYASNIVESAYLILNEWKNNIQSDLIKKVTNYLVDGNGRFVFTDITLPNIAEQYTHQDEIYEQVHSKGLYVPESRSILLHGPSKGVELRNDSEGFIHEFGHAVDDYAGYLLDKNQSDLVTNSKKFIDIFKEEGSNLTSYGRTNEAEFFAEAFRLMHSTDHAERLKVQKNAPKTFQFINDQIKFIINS
Assay [4] concerns the target T1, Human matrix metalloprotease-1 (Homo sapiens, UniProt P03956).
T1 sequence (P03956 100-469): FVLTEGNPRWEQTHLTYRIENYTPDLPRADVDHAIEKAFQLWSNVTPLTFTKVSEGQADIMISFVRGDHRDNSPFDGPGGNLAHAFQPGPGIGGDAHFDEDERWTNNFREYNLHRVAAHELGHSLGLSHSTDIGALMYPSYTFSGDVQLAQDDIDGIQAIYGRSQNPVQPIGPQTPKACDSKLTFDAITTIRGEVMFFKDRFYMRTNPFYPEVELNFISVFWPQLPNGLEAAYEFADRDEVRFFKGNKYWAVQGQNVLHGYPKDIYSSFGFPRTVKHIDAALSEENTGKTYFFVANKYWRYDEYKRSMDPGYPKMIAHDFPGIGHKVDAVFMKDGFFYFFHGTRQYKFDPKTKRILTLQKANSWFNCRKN
Briefly: Human MMP-1 FRET assay. Format: biochemical.

Where a name gives a salt, the structure may show the parent alone. Read-outs that look alike come from different tables or passages of the source.

Sequence of Bacillus anthracis lethal factor (P15917 34-809 limits assumed): as the sequence (P15917 34-809 limits assumed) above
Sequence of BoNT/A LC (P0DPI0 2-448 limits assumed): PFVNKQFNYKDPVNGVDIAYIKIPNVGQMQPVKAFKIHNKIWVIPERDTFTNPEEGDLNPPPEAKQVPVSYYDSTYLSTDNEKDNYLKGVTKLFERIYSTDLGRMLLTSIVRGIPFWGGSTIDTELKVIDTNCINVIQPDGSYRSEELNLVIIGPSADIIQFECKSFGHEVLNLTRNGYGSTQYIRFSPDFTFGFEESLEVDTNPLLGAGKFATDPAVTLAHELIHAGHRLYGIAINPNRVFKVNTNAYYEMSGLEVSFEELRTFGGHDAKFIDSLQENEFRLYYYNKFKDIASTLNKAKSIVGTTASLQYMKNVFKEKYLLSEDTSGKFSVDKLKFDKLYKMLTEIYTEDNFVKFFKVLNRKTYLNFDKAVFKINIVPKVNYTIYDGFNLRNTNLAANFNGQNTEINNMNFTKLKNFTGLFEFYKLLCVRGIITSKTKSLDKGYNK

As for `COc1cccc(CCC(=O)Nc2ccc3nc(C)cc(N)c3c2)c1` [Compound 18v, N-(4-Amino-2-methylquinolin-6-yl)-3-(3-methoxyphenyl)propionamide trifluoroacetate], the “LF inhibitory activity (in words)” value in assay [1] is listed as “LF inhibitory activity was lost”.

As to `COc1ccc(CCC(=O)Nc2ccc3nc(C)cc(N)c3c2)cc1` [Compound 18u, N-(4-Amino-2-methylquinolin-6-yl)-3-(4-methoxyphenyl)propionamide p-toluenesulfonate], the “LF inhibitory activity (in words)” value in assay [1] is recorded as “LF inhibitory activity was lost”. The same measure, in the same setting: then `CCOc1ccccc1CCC(=O)Nc1ccc2nc(C)cc(N)c2c1` [Compound 18ii, N-(4-Amino-2-methylquinolin-6-yl)-3-(2-ethoxyphenyl)propionamide trifluoroacetate], with “activity was also totally lost”. As for “N-(4-Amino-2-methylquinolin-6-yl)isoquinoline-3-carboxamide trifluoroacetate [Compound 18h]”, the IC50 in assay [2] (read-out: IC50 BoNT/A) is more than 100 µM. On to `Cc1cc(N)c2cc(NC(=O)CCc3ccccc3OC(=O)c3ccccc3)ccc2n1` [Compound 18y, N-(4-Amino-2-methylquinolin-6-yl)-3-(2-benzoyloxyphenyl)propionamide trifluoroacetate], for which the “LF inhibitory activity (in words)” value in assay [1] was “inactive”. On to `COc1ccccc1CCC(=O)Nc1ccc2nc(C)cc(N)c2c1` [Compound 18t, N-(4-Amino-2-methylquinolin-6-yl)-3-(2-methoxyphenyl)propionamide trifluoroacetate], for which, in assay [3], the “mechanism of inhibition on BaLF activity” value is “noncompetitive”. For `Cc1cc(N)c2cc(NC(=O)CCc3ccccc3C)ccc2n1` [Compound 18aa, N-(4-Amino-2-methylquinolin-6-yl)-3-(2-methylphenyl)propionamide trifluoroacetate], in assay [1], the “LF inhibitory activity (in words)” value was “inactive”. Take `COc1ccc(Br)cc1CCC(=O)Nc1ccc2nc(C)cc(N)c2c1` [Compound 18ee, N-(4-Amino-2-methylquinolin-6-yl)-3-(5-bromo-2-methoxyphenyl)propionamide trifluoroacetate]: the “LF inhibitory activity (in words)” value in assay [1] is “inactive”. The same measure, in the same setting: then `COc1ccc(Cl)cc1CCC(=O)Nc1ccc2nc(C)cc(N)c2c1` [Compound 18ff, N-(4-Amino-2-methylquinolin-6-yl)-3-(5-chloro-2-methoxyphenyl)propionamide trifluoroacetate], with “inactive”. In turn, `Cc1cc(N)c2cc(NC(=O)Nc3ccc4nc(C)cc(N)c4c3)ccc2n1` [Compound 1] registered an IC50 in assay [4] of more than 100 µM. Turning to `COc1ccc(OC)c(CCC(=O)Nc2ccc3nc(C)cc(N)c3c2)c1` [Compound 18w, N-(4-Amino-2-methylquinolin-6-yl)-3-(2,5-dimethoxyphenyl)propionamide p-toluenesulfonate], in assay [1], the “LF inhibitory activity (in words)” value is recorded as “complete loss of activity”. On to `Cc1cc(N)c2cc(NC(=O)c3ccc(-c4ccc5ncccc5c4)cc3)ccc2n1` [Compound 18m, N-(4-Amino-2-methylquinolin-6-yl)-4-(quinoline-6-yl)benzamide trifluoroacetate], for which the “mechanism of inhibition on BaLF activity” value in assay [3] is given as “noncompetitive”. Turning to `COc1ccncc1CCC(=O)Nc1ccc2nc(C)cc(N)c2c1` [Compound 18oo, N-(4-Amino-2-methylquinolin-6-yl)-3-(4-methoxypyridin-3-yl)propionamide], the “LF inhibitory activity (in words)” value in assay [1] was “devoid of activity”. Regarding `COc1cc(-c2cccnc2)ccc1CCC(=O)Nc1ccc2nc(C)cc(N)c2c1` [Compound 35, N-(4-Amino-2-methylquinolin-6-yl)-3-(2-methoxy-4-(pyridin-3-yl)phenyl)propanamide], the IC50 in assay [1] came out at 55 µM. Take `Cc1cc(N)c2cc(NC(=O)CCc3ccccc3Cl)ccc2n1` [Compound 18z, N-(4-Amino-2-methylquinolin-6-yl)-3-(2-chlorophenyl)propionamide trifluoroacetate]: the “LF inhibitory activity (in words)” value in assay [1] was “inactive”. The same measure, in the same setting: then `COc1ccsc1CCC(=O)Nc1ccc2nc(C)cc(N)c2c1` [Compound 18pp, N-(4-Amino-2-methylquinolin-6-yl)-3-(3-methoxythiophene-2-yl)propionamide trifluoroacetate], with “devoid of activity”. With `COc1cccc(CCC(=O)Nc2ccc3nc(C)cc(N)c3c2)c1OC` [Compound 18x, N-(4-Amino-2-methylquinolin-6-yl)-3-(2,3-dimethoxyphenyl)propionamide p-toluenesulfonate], in assay [1], the “LF inhibitory activity (in words)” value is on record as “complete loss of activity”.

For the compound `Cc1cc(N)c2cc(NC(=O)Nc3ccc4c(c3)OCO4)ccc2n1` [Compound 20a, 1-(4-Amino-2-methylquinolin-6-yl)-3-(benzo[d][1,3]dioxol-5-yl)urea trifluoroacetate], the figures for the IC50 in assay [1] and in assay [2] were 87 µM and 51 µM, respectively.

Regarding “N-(4-Amino-2-methylquinolin-6-yl)quinoline-2-carboxamide trifluoroacetate [Compound 18g]”, the IC50 in assay [1] (read-out: IC50 LF) is 52 µM.
